Assay results published in publication PMC3710586 (NeuroImage, 2010).
Values joined by “and” are separate entries in the source; they are usually repeats but may differ in a detail not shown here. Identical values can stand only once. “Also recorded” adds a separate entry of the source. Like-named read-outs stand apart in the source and are kept apart here.

Key:
[1] = target: norepinephrine transporters (NET) (Macaca mulatta, UniProt Q9MYW8)
[2] = humans; ref Sauer et al., 2003; cited from earlier work
[3] = test system: norepinephrine transporters (NET); conditions: humans, cited from earlier work
ATX plasma levels = assay type: in vivo, rhesus monkey
[4] = rats; ref Mattiuz et al., 2003; Kielbasa et al., 2009; cited from earlier work
[5] = dogs; ref Mattiuz et al., 2003; cited from earlier work
[6] = test system: norepinephrine transporters (NET); conditions: rhesus monkeys, cited from earlier work
[7] = humans, ref Logan et al., 2007, cited from earlier work
[8] = target: norepinephrine transporters (Homo sapiens, UniProt P23975); conditions: read-out: MRB dissociation constant Kd, in vitro; ref Melloni et al., 1984; cited from earlier work
Sequence of norepinephrine transporters (P23975 whole entry): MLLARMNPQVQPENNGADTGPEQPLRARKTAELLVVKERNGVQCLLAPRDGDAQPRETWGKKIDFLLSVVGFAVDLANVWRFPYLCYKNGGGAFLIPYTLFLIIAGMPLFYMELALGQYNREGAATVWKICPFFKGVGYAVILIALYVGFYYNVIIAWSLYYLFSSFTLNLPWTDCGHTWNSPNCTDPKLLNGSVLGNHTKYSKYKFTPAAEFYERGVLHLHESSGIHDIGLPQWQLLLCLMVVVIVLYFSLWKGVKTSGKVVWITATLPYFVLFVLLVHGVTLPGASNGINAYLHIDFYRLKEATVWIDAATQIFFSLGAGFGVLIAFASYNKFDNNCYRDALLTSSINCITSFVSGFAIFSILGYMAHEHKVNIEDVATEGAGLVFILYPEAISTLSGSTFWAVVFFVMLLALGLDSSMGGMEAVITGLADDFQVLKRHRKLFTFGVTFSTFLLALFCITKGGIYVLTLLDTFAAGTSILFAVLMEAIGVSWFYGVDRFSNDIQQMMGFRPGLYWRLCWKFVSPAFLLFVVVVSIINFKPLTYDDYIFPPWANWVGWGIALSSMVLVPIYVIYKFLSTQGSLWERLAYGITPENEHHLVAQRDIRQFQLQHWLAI

[9] = test system: norepinephrine transporters (NET); conditions: for Global VND/fP estimate (four NET-rich regions): Eq. 5, shared across regions, rSE 22%
[10] = [11C]MRB arterial input function and plasma metabolite analysis; assay type: in vivo, rhesus monkey; conditions: for Fraction of unmetabolized [11C]MRB in plasma: n=10
[11] = [11C]MRB plasma free fraction by ultrafiltration; assay type: in vitro ADME, rhesus monkey
[12] = rhesus monkey, read-out: Percentage of occupancy of NET by ATX
[13] = ATX low dose, Day 2, MA1, one row per monkey
[14] = ATX medium dose, Day 1, MA1, one row per monkey
[15] = Baseline, Day 1, MA1, one row per monkey
[16] = after 40 mg of methylphenidate, n=9, ref Hannestad et al., 2010

Sequence of norepinephrine transporters (NET) (Macaca mulatta, UniProt Q9MYW8) (Q9MYW8 1-617): as the sequence (P23975 whole entry) above, with N15S, T19A, I246V, V410I, V427I, S452G, I606V counted along it

CNCC[C@@H](Oc1ccccc1C)c1ccccc1 [ATX, atomoxetine]
IC50 ([1]; ATX IC50 using BPF, caudate as reference region, plasma concentration, rSE 16%): 0.0744 µM
Effect of ATX on [11C]MRB binding (VT/fP) in NET-rich regions ([1]; all monkeys, increasing ATX infusion doses): decreased in a dosedependent manner; also recorded: inhibited in a dose-dependent manner
ATX occupancy estimate (Lassen plot) ([1]; monkey 1, high-dose scan): 86±13%
ATX occupancy estimate (Lassen plot) ([1]; monkey 1, low-dose scan): 31±10%
ATX occupancy estimate (Lassen plot) ([1]; monkey 1, medium-dose scan): 56±7%
ATX occupancy estimate (Lassen plot) ([1]; monkey 2 (only medium-dose scan acquired)): 65±18%
ATX occupancy estimate (Lassen plot) ([1]; monkey 3, high-dose scan): 82±6%
ATX occupancy estimate (Lassen plot) ([1]; monkey 3, low-dose scan): 39±14%
ATX occupancy estimate (Lassen plot) ([1]; monkey 3, medium-dose scan): 63±7%
ED50 ([1]; rhesus monkey, read-out: ATX ED50, dose): 0.13 mg/kg
receptor occupancy at 0.012 µg/mL [1, 12]: 27%
receptor occupancy at 0.132 µg/mL [1, 12]: 80%
Plasma free fraction of ATX [2]: 1.3%
Reduction of [11C]MRB average VT in the occipital cortex ([3]; after 100 mg of ATX, ref Logan et al., 2007): 10%
Percent change per hour of ATX plasma level during the PET scan (ATX plasma levels; mono-exponential fit of 0-, 60-, 120-min samples): −1±6 %/h
Slope of regression of ATX plasma level versus maintenance infusion rate (ATX plasma levels; r^2=0.902, n=7, intercept set to zero): 1.04 kg·h/L and 1.042 kg·h/L
Plasma free fraction of ATX [4]: 11–13%
Plasma free fraction of ATX [5]: 3%
ATX IC50 in occupancy study using [18F]F-MeNER-D2 ([6]; plasma, ref Takano et al., 2009a): 0.016 µg/mL
Plasma levels of ATX ([7]; 25 mg oral ATX): 116 ng/mL
Plasma levels of ATX ([7]; 50 mg oral ATX): 206 ng/mL
Plasma levels of ATX ([7]; 100 mg oral ATX): 421 ng/mL

COc1ccccc1OC(c1ccccc1)C1CNCCO1 (centres unmarked) [MRB]
Kd [8]: 0.0025 µM

[11CH3]Oc1ccccc1O[C@@H](c1ccccc1)[C@@H]1CNCCO1 [[^11C]MRB, (S,S)-[^11C]methylreboxetine]
Distribution Volume VT, Caudate [9, 13]: 6.2 mL/cm^3 and 2.1 mL/cm^3
Distribution Volume VT, Midbrain [9, 13]: 9.0 mL/cm^3 and 3.0 mL/cm^3
Distribution Volume VT, Putamen [9, 13]: 2.4 mL/cm^3 and 6.8 mL/cm^3
Distribution Volume VT, Anterior Cingulate [9, 14]: 11.0 mL/cm^3 and 8.7 mL/cm^3 and 8.3 mL/cm^3
Distribution Volume VT, Brainstem [9, 14]: 11.5 mL/cm^3 and 7.3 mL/cm^3 and 8.2 mL/cm^3
Distribution Volume VT, Caudate [9, 14]: 8.7 mL/cm^3 and 6.5 mL/cm^3 and 6.3 mL/cm^3
Distribution Volume VT, Midbrain [9, 14]: 10.1 mL/cm^3 and 7.5 mL/cm^3 and 7.8 mL/cm^3
Distribution Volume VT, Occipital [9, 14]: 8.2 mL/cm^3 and 6.4 mL/cm^3 and 5.6 mL/cm^3
Distribution Volume VT, Putamen [9, 14]: 7.2 mL/cm^3 and 9.9 mL/cm^3 and 8.7 mL/cm^3
Distribution Volume VT, Thalamus [9, 14]: 11.6 mL/cm^3 and 8.2 mL/cm^3 and 8.5 mL/cm^3
Distribution Volume VT, Anterior Cingulate [9, 15]: 13.3 mL/cm^3 and 10.1 mL/cm^3 and 10.9 mL/cm^3
Distribution Volume VT, Brainstem [9, 15]: 16.3 mL/cm^3 and 10.2 mL/cm^3 and 11.1 mL/cm^3
Distribution Volume VT, Midbrain [9, 15]: 13.3 mL/cm^3 and 10.5 mL/cm^3 and 9.4 mL/cm^3
Distribution Volume VT, Occipital [9, 15]: 8.4 mL/cm^3 and 6.6 mL/cm^3 and 6.4 mL/cm^3
Distribution Volume VT, Putamen [9, 15]: 6.3 mL/cm^3 and 8.9 mL/cm^3 and 6.6 mL/cm^3
Distribution Volume VT, Thalamus [9, 15]: 15.5 mL/cm^3 and 10.7 mL/cm^3 and 12.7 mL/cm^3
Distribution Volume VT, Caudate ([9]; Baseline, Day 1, MA1 t*=30 min, one row per monkey #1-#3): 7.7 mL/cm^3 and 6.5 mL/cm^3 and 5.9 mL/cm^3
VND/fP in the putamen ([9]; Bmax/Kd set to zero): 30 mL/cm^3
Global VND/fP estimate (four NET-rich regions) [9]: 19±4 mL/cm^3
Global VND/fP estimate (four NET-rich regions) ([9]; listed as [^11C] MRB): 19 mL/cm^3
VND/fP estimate (four high binding regions plus occipital cortex) ([9]; Eq. 5, rSE 15%): 19± 3 mL/cm^3
Binding potential BPND in the thalamus ([9]; baseline VT/fP divided by global VND/fP, minus one, n=3): 1.8±0.3
Expected value of BPND in the thalamus ([9]; computed from in vitro Kd 2.5 nM, NET density 23–72 nM and fND): 0.46–1.44
Tissue free fraction fND ([9]; fND=fP/VND, from VND/fP 19 mL/cm^3): ~5%
VT/fP after blockade by the highest dose of ATX, anterior cingulate cortex ([9]; n=2, unit not given): 24±3
VT/fP after blockade by the highest dose of ATX, brainstem ([9]; n=2, unit not given): 24±1
VT/fP after blockade by the highest dose of ATX, midbrain ([9]; n=2, unit not given): 23±1
VT/fP after blockade by the highest dose of ATX, thalamus ([9]; n=2, unit not given): 26±3
Normalized distribution volume VT/fP at baseline, caudate nucleus ([9]; n=3): 28±3 mL/cm^3
Normalized distribution volume VT/fP at baseline, occipital cortex ([9]; n=3): 30±2 mL/cm^3
Normalized distribution volume VT/fP at baseline, putamen ([9]; n=3): 30±2 mL/cm^3
Specific binding in the NET-poor regions (caudate, putamen and occipital) ([9]; or a higher non-specific binding): ≤ 30%
Fraction of unmetabolized [11C]MRB in plasma ([10]; 20 min post-injection): 42±8%
Fraction of unmetabolized [11C]MRB in plasma ([10]; 90 min post-injection): 25±4%
Whole blood to plasma radioactivity concentration ratio ([10]; throughout the scans): 0.94±0.13
Change of plasma free fraction fP from first to second scan of the day [11]: +17%±10
Day-to-day variability of plasma free fraction fP ([11]; monkey #1): −16%
Day-to-day variability of plasma free fraction fP ([11]; monkey #3): −68%

[2H]C([2H])([18F])Oc1ccccc1O[C@@H](c1ccccc1)[C@H]1CNCCO1 [[^18F]MeNER-D2]
BPND in the thalamus ([6]; ref Seneca et al., 2006): 0.26±0.06
BPND in the thalamus ([6]; ref Takano et al., 2009a,b): 0.7±0.1

COC(=O)C(c1ccccc1)C1CCCCN1 (centres unmarked) [methylphenidate]
Reduction of [11C]MRB VT in the occipital cortex [3, 16]: 9±17%
Reduction of [11C]MRB VT/fP in the occipital cortex [3, 16]: 5±15%
